Laboratory results reported in ChEMBL document CHEMBL1129704, “Synthesis, biological activity and quantitative structure-activity relationships of N-substituted-3,4-dihydro-2H-1-benzopyran derivatives” (Bioorg Med Chem Lett, 1996).

Columns and labels:
[1] = target: T1, 5-hydroxytryptamine receptor 2C (Homo sapiens, UniProt P28335); test: Compound was evaluated for the binding affinity towards 5-hydroxytryptamine 2C receptor by displacement of [3H]-Ketanserin
T1 sequence (P28335 whole entry): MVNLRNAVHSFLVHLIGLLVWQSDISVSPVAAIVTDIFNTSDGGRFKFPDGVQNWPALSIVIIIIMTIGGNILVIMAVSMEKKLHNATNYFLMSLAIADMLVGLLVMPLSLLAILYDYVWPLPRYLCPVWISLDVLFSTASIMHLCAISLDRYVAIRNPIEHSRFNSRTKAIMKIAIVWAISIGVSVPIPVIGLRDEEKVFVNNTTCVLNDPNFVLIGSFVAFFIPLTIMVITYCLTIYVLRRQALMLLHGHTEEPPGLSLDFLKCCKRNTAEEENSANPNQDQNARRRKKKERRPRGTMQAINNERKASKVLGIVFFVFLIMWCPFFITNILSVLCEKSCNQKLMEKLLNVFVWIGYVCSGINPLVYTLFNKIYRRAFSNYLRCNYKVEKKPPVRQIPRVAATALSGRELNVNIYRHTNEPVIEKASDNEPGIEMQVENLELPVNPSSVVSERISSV

D(1A) dopamine receptor [2] = target: T2, D(1A) dopamine receptor (Homo sapiens, UniProt P21728); test: Compound was evaluated for the binding affinity towards Dopamine receptor D1 by displacement of […].
D(2) dopamine receptor [3] = target: T3, D(2) dopamine receptor (Homo sapiens, UniProt P14416); test: Binding affinity towards Dopamine receptor D2 by displacement of [3H]-Raclopride.
[4] = target: T4, 5-hydroxytryptamine receptor 1A (Homo sapiens, UniProt P08908); test: Binding affinity towards 5-hydroxytryptamine 1A receptor by displacement of [3H]8-OH-DPAT.
T4 sequence (P08908 whole entry): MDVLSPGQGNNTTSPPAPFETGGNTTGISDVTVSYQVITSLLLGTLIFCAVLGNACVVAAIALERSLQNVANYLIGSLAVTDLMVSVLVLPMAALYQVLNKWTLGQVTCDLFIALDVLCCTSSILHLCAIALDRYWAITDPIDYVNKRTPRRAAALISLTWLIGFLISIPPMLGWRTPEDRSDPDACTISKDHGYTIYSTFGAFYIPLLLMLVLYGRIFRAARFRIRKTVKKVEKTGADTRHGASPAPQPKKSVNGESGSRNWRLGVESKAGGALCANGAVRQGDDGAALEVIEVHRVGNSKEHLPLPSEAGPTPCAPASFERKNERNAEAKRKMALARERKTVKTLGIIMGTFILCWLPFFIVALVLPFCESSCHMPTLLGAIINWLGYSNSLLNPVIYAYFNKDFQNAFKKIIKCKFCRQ

[5] = target: T5, 5-hydroxytryptamine receptor 1B (Homo sapiens, UniProt P28222); test: Binding affinity towards 5-hydroxytryptamine 1B receptor by displacement of [3H]5-HT.
[6] = target: 5-hydroxytryptamine receptor 2A (Homo sapiens, UniProt P28223); test: Binding affinity towards 5-hydroxytryptamine 2A receptor by displacement of [3H]ketanserin
[7] = target: T5, 5-hydroxytryptamine receptor 1B; test: Compound was evaluated for the binding affinity towards 5-hydroxytryptamine 1B receptor by displacement of […].
D(1A) dopamine receptor [8] = target: T2, D(1A) dopamine receptor; test: Binding affinity towards Dopamine receptor D1 by displacement of [3H]SCH-23,390
D(2) dopamine receptor [9] = target: T3, D(2) dopamine receptor; test: Compound was evaluated for the binding affinity towards Dopamine receptor D2 by displacement of […].
D(1A) dopamine receptor [10] = target: T2, D(1A) dopamine receptor; test: Compound was evaluated for the Dopamine receptor D1 by displacement of [3H]SCH-23390.

Sequence of 5-hydroxytryptamine receptor 2A (P28223 whole entry): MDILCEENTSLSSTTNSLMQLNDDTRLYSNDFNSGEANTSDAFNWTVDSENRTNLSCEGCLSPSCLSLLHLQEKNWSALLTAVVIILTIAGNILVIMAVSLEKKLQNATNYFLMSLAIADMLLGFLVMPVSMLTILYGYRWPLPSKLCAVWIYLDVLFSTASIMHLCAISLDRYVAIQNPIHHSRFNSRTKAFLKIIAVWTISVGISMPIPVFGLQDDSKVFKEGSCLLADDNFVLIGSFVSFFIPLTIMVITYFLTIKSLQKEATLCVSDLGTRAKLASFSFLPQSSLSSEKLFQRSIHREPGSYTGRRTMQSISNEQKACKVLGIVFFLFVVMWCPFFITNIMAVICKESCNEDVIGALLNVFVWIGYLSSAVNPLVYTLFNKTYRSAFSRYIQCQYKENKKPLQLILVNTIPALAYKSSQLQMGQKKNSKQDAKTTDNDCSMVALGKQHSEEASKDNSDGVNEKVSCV
T3 sequence (P14416 whole entry): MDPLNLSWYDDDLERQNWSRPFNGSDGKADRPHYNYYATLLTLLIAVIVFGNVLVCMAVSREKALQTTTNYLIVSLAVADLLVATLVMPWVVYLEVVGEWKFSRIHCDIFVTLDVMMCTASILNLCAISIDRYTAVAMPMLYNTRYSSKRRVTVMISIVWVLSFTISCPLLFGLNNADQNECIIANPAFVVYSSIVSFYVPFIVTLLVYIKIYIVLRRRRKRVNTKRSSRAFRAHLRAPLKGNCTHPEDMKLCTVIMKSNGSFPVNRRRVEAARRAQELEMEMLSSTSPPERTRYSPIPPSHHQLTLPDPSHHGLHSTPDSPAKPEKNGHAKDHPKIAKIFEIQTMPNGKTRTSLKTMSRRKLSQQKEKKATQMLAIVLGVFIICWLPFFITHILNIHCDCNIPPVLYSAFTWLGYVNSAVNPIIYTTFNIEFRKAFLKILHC
T2 sequence (P21728 whole entry): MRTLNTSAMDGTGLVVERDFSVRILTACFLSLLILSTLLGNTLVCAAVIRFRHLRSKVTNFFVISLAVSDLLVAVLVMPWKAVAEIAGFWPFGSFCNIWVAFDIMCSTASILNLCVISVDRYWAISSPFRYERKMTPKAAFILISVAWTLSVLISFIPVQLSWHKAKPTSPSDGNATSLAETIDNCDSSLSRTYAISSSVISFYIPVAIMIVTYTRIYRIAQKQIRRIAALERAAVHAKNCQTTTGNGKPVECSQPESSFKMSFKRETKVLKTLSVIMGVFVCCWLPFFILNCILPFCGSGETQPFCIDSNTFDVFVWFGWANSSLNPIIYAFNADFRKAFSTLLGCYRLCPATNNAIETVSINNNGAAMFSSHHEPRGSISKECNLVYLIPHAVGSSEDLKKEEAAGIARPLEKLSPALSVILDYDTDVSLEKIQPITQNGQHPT
T5 sequence (P28222 whole entry): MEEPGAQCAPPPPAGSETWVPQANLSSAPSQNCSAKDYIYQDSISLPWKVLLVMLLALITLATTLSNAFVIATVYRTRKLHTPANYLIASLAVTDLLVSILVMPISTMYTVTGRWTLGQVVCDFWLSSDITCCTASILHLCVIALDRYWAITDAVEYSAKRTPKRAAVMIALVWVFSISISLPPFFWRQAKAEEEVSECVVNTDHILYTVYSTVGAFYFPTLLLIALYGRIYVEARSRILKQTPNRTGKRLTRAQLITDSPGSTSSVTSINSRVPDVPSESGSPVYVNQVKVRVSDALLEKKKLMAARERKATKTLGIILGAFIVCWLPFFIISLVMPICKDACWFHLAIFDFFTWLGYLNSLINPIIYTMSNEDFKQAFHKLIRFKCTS

SMILES | IC50 [1] | IC50 (D(1A) dopamine receptor [2]) | IC50 (D(2) dopamine receptor [3]) | IC50 [4] | IC50 [5] | IC50 [6] | IC50 [7] | IC50 (D(1A) dopamine receptor [8]) | IC50 (D(2) dopamine receptor [9]) | IC50 (D(1A) dopamine receptor [10])
CCCN(CCC)CC1COc2cccc(OC)c2C1 (stereo unspecified) | 33.9 µM | 34.7 µM | 2.57 µM | 0.234 µM | 22.9 µM | 15.8 µM |  |  |  | 
COc1cccc2c1CC1(CCCN1CCCCN1C(=O)CC3(CCCC3)CC1=O)CO2 (stereo unspecified) |  |  |  | 0.0107 µM | 3.8 µM |  | 6.61 µM | > 10 µM | 1.1 µM | 
CCCN1CCN(CCCCN2C(=O)CC3(CCCC3)CC2=O)CC12COc1cccc(OC)c1C2 (stereo unspecified) |  |  |  | 15.8 µM | 1.58 µM | 11.2 µM |  |  |  | 
O=C1CC2(CCCC2)CC(=O)N1CCCCNCC1COc2ccccc2C1 (stereo unspecified) |  |  | 0.0676 µM | 0.00631 µM | 6.92 µM | 0.0562 µM |  | 3.31 µM |  | 
CCCN(CCCCN1C(=O)CC2(CCCC2)CC1=O)C1COc2cccc(OC)c2C1 (stereo unspecified) |  |  | 0.01 µM |  |  | 1 µM |  |  |  | 39.8 µM
CCCN1CCN(Cc2ccccc2)CC12COc1cccc(OC)c1C2 (stereo unspecified) |  |  |  | 15.8 µM | 35.5 µM | 24.5 µM |  |  |  | 
CCCN(CCC)CC1(N(CCC)CCC)COc2cccc(OC)c2C1 (stereo unspecified) |  |  |  | 4.17 µM | 138 µM | 214 µM |  |  |  | 
COc1cccc2c1CC(CNCCCCN1C(=O)CC3(CCCC3)CC1=O)CO2 (stereo unspecified) |  |  | 0.0295 µM | 0.000129 µM | 3.02 µM | 0.049 µM |  | 0.832 µM |  | 
CCCN(CCCCN1C(=O)CC2(CCCC2)CC1=O)CC1COc2cccc(OC)c2C1 (stereo unspecified) |  |  | 1.78 µM | 0.513 µM | 7.41 µM | 7.76 µM |  | 13.8 µM |  | 
CCCN1CCN(CCC)C2(COc3cccc(OC)c3C2)C1 (stereo unspecified) |  |  |  | 3.02 µM | > 100 µM | 10 µM |  |  |  | 
